From patent publication US9326513B2, “Fungicidal compositions” (Syngenta Participations AG, priority 2011, dated 2016)
Read-outs that look alike come from different tables or passages of the source.

Experiments:
[1] = system: Puccinia recondita f. sp. tritici; assay: Puccinia recondita f. sp. tritici / wheat / leaf disc preventative (brown rust); format: in vivo; settings: foliar, compared to untreated control leaf disks, read-out: disease control
Text: Puccinia recondita f. sp. tritici/Wheat/Leaf Disc Preventative (Brown Rust) Wheat leaf segments cv. Kanzler were placed on agar in multiwell plates (24-well format) and sprayed with the formulated test compound diluted in water. The leaf disks were inoculated with a spore suspension of the fungus 1 day after application.

Septoria tritici [2] = assay: Septoria tritici (leaf blotch), YBG microtiter plate, photometric growth inhibition after 6 days; format: cell-based; settings: Zymoseptoria tritici, 144 h
Text: In the following Tables ‘Activity (%)’ means the assessed experimental activity (% disease control in this test when compared to untreated control leaf disks under the same conditions, which show extensive disease development) and “P” is the expected value calculated (expected) activity according to the COLBY formula (see above). The column headed ‘S?’ indicates whether or not synergy was observed, with ‘y’ meaning that synergy was observed.
Septoria tritici (Leaf Blotch):
After placing solutions of the test compounds (containing 0.2% DMSO) into a microtiter plate (96-well format), an equal amount of the nutrient broth (YBG) was added to each of the well. Finally the fungal spore solution was added. The test plates were incubated at 20° C. The inhibition of growth was determined photometrically after 6 days and the activity calculated in relation to untreated control.

[3] = system: Monographella nivalis (syn. Microdochium nivale, Fusarium nivale); assay: Monographella nivalis (snow mould, foot rot of cereals), PDB microtiter plate, visual after 72 hrs; format: cell-based; settings: applied alone, 0.25 ppm
[4] = system: Mycosphaerella arachidis (y. Cercospora arachidicola); assay: Mycosphaerella arachidis (brown leaf spot of groundnut), PDB microtiter plate, visual after 5-6 days; format: cell-based; settings: single compound
[5] = system: Blumeria graminis f. sp. tritici (Erysiphe graminis f. sp. tritici); assay: Blumeria graminis f. sp. tritici / wheat / leaf disc preventative (powdery mildew on wheat); format: in vivo; settings: foliar, compared to untreated control leaf disks, read-out: disease control
Summary of the method: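 Wheat leaf segments (cv. Kanzler) on agar were sprayed with formulated compound in water, inoculated with powdery mildew 1 day later, and kept at 20° C, 60% rh (24 h dark, then 12 h light/12 h dark). Percent disease control versus untreated scored 6-8 days after application; tested at 200 ppm.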

[6] = system: Puccinia recondita f. sp. tritici; assay: Puccinia recondita f. sp. tritici / wheat / leaf disc curative (brown rust); format: in vivo; settings: foliar, compared to untreated control leaf disks, read-out: disease control
Procedure: Puccinia recondita f. sp. tritici/Wheat/Leaf Disc Curative (Brown Rust) Wheat leaf segments cv. Kanzler are placed on agar in multiwell plates (24-well format). The leaf segments are inoculated with a spore suspension of the fungus. Plates were stored in darkness at 19° C. and 75% rh. The formulated test compound diluted in water was applied 1 day after inoculation.

Septoria tritici [7] = assay: Septoria tritici (leaf blotch), PDB microtiter plate, visual after 72 hrs; format: cell-based; settings: Zymoseptoria tritici, single compound
Septoria tritici [8] = assay: Septoria tritici on wheat, preventive treatment; format: in vivo; settings: solo, wheat Riband, 1 day preventive, 18 days after application

CCN(C)/C=N/c1cc(Br)c(OC2CCCc3ccc(-c4cccc(F)c4)cc32)nc1C (centres unmarked) [Q.137]
pest or weed control at 200 ppm [1]: ≥ 50%
melting point: 43 to 45 °C

CC(C)(C)C(O)(CCc1ccc(Cl)cc1)Cn1cncn1 (centres unmarked) [Tebuconazole]
inhibition of growth at 1.25 ppm (Septoria tritici [2]; solo, rate 1.25 ppm): 0%
inhibition of growth at 2.5 ppm (Septoria tritici [2]; solo, rate 2.5 ppm): 47%
inhibition of growth at 5 ppm (Septoria tritici [2]; solo, rate 5 ppm): 73%

Cn1cc(C(=O)Nc2ccc(F)cc2-c2ccc(Cl)c(Cl)c2)c(C(F)F)n1 [Bixafen]
Activity (%) [3]: 20%
Activity (%) ([4]; 0.03125 ppm): 50%
Activity (%) ([4]; 0.0625 ppm): 70%

Fc1ccc([C@]2(Cn3cncn3)O[C@H]2c2ccccc2Cl)cc1 (racemic) [Epoxiconazole]
inhibition of growth at 0.15625 ppm (Septoria tritici [2]; solo, rate 0.15625 ppm, read-out: Activity): 65%
inhibition of growth at 0.625 ppm (Septoria tritici [2]; solo, rate 0.625 ppm): 71%

CCN(C)/C=N/c1cc(Br)c(OCc2c(C)cccc2C)nc1C [Q.325]
pest or weed control at 200 ppm [5]: ≥ 50%
pest or weed control at 200 ppm [1]: ≥ 50%
pest or weed control at 200 ppm [6]: ≥ 50%
melting point: 56 to 57 °C

O=[N+]([O-])c1cc(C(F)(F)F)c(Cl)c([N+](=O)[O-])c1Nc1ncc(C(F)(F)F)cc1Cl [Fluazinam]
inhibition at 0.015625 ppm (Septoria tritici [7]; 0.015625 ppm): 0%
inhibition at 0.03125 ppm (Septoria tritici [7]; 0.03125 ppm): 20%
inhibition at 0.0625 ppm (Septoria tritici [7]; 0.0625 ppm): 70%
inhibition at 0.00390625 ppm ([4]; Mycosphaerella arachidis, 0.00390625 ppm, read-out: Activity (%)): 0%
inhibition at 0.0078125 ppm ([4]; Mycosphaerella arachidis, 0.0078125 ppm, read-out: Activity (%)): 0%
inhibition at 0.015625 ppm ([4]; Mycosphaerella arachidis, 0.015625 ppm, read-out: Activity (%)): 0%
inhibition at 0.03125 ppm ([4]; Mycosphaerella arachidis, 0.03125 ppm, read-out: Activity (%)): 0%
inhibition at 0.0625 ppm ([4]; Mycosphaerella arachidis, 0.0625 ppm, read-out: Activity (%)): 20%

CC1COC(Cn2cncn2)(c2ccc(Oc3ccc(Cl)cc3)cc2Cl)O1 (centres unmarked) [Difenoconazole]
inhibition of growth at 0.15625 ppm (Septoria tritici [2]; read-out: Activity): 48%
Activity (Septoria tritici [8]; 0.33 g a.i./ha): 0%
Activity (Septoria tritici [8]; 1 g a.i./ha): 0%
Activity (Septoria tritici [8]; 3 g a.i./ha): 0%
Activity (Septoria tritici [8]; 9 g a.i./ha): 3%
Activity (Septoria tritici [8]; 27 g a.i./ha): 5%

CCN(C)/C=N/c1cc(Br)c(OC(C)c2ccccc2-c2ccccc2)nc1C (centres unmarked) [Q.295]
pest or weed control at 200 ppm [1]: ≥ 50%
melting point: 59 to 62 °C

CCCN(CCOc1c(Cl)cc(Cl)cc1Cl)C(=O)n1ccnc1 [Prochloraz]
inhibition of growth at 0.015625 ppm (Septoria tritici [2]; read-out: Activity): 48%
inhibition of growth at 0.03125 ppm (Septoria tritici [2]; read-out: Activity): 80%

Cn1cc(C(=O)Nc2ccccc2C2CC2C2CC2)c(C(F)F)n1 (centres unmarked) [Sedaxan]
Activity (%) ([4]; 0.00390625 ppm): 0%
Activity (%) ([4]; 0.015625 ppm): 0%
Activity (%) ([4]; 0.03125 ppm): 0%
Activity (%) ([4]; 0.0625 ppm): 0%
Activity (%) ([4]; 0.125 ppm): 0%

CCN(C)/C=N/c1cc(Br)c(OCCc2cc(C)cc(C)c2)nc1C [Q.422]
melting point: 61 to 63 °C
